In PMC10176470, “Engaging a Non-catalytic Cysteine Residue Drives Potent and Selective Inhibition of Caspase-6” (Journal of the American Chemical Society, 2023):

How the values were obtained:
Type in all cases: cell-based
[1] = biological target: proteins of HEK293T cells transiently overexpressing caspase-6 (Homo sapiens, UniProt P29692); settings: exp_ref Probe; protein EEF1D (P29692); analysis C6
[2] = biological target: proteins of HEK293T cells transiently overexpressing caspase-6 (Homo sapiens, UniProt Q8NBS9); settings: exp_ref Probe; protein TXNDC5 (Q8NBS9); analysis C6
[3] = biological target: proteins of HEK293T cells transiently overexpressing caspase-6 (Homo sapiens, UniProt Q14166); settings: exp_ref Probe; protein TTLL12 (Q14166); analysis C6
[4] = biological target: T1, proteins of HEK293T cells transiently overexpressing caspase-6 (Homo sapiens, UniProt O43169); settings: protein CYB5B (O43169)
T1 sequence (O43169 16-150): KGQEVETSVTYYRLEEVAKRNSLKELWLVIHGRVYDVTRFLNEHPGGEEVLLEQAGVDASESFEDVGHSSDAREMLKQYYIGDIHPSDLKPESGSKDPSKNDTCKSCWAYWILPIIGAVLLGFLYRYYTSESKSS

[5] = biological target: proteins of HEK293T cells transiently overexpressing caspase-6 (Homo sapiens, UniProt O43707); settings: protein ACTN4 (O43707)
[6] = biological target: proteins of HEK293T cells transiently overexpressing caspase-6 (Homo sapiens, UniProt P05023); settings: exp_ref Probe; protein ATP1A1 (P05023); analysis C6
[7] = biological target: proteins of HEK293T cells transiently overexpressing caspase-6 (Homo sapiens, UniProt Q00610); settings: exp_ref Probe; protein CLTC (Q00610); analysis C6
[8] = biological target: T2, proteins of HEK293T cells transiently overexpressing caspase-6 (Homo sapiens, UniProt P30084); settings: exp_ref Probe; protein ECHS1 (P30084); analysis C6
T2 sequence (P30084 28-290): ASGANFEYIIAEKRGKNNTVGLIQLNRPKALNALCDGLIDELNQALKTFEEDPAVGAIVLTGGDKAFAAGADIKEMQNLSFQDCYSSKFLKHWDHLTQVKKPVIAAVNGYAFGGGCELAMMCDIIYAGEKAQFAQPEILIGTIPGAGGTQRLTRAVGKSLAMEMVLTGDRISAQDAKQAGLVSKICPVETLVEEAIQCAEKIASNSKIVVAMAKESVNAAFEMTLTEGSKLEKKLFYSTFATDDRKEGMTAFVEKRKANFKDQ

[9] = biological target: proteins of HEK293T cells transiently overexpressing caspase-6 (Homo sapiens, UniProt P07195)
[10] = biological target: proteins of HEK293T cells transiently overexpressing caspase-6 (Homo sapiens, UniProt P84103); settings: Probe; protein SRSF3 P84103
[11] = biological target: proteins of HEK293T cells transiently overexpressing caspase-6 (Homo sapiens, UniProt Q96AG4); settings: protein LRRC59 (Q96AG4); exp_ref Probe; analysis C6
[12] = biological target: proteins of HEK293T cells transiently overexpressing caspase-6 (Homo sapiens, UniProt P49189); settings: exp_ref Probe; protein ALDH9A1 (P49189); analysis C6
[13] = biological target: T3, proteins of HEK293T cells transiently overexpressing caspase-6 (Homo sapiens, UniProt Q15942)
T3 sequence (Q15942 1-572): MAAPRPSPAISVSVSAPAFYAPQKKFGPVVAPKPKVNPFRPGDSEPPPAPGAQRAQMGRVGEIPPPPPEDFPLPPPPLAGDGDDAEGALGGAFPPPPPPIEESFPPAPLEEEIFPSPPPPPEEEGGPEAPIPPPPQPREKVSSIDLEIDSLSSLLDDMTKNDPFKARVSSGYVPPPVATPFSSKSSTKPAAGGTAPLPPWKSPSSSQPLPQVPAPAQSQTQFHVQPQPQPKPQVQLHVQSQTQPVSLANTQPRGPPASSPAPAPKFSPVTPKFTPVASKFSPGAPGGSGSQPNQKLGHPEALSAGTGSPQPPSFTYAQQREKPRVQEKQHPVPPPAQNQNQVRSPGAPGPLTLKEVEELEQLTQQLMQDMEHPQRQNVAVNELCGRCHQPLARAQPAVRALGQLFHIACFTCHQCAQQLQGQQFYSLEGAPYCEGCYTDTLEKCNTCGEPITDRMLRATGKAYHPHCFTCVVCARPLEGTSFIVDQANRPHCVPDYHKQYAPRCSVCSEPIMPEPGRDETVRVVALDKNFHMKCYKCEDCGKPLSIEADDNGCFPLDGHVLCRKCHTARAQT

[14] = biological target: T4, proteins of HEK293T cells transiently overexpressing caspase-6 (Homo sapiens, UniProt P09622)
T4 sequence (P09622 36-509): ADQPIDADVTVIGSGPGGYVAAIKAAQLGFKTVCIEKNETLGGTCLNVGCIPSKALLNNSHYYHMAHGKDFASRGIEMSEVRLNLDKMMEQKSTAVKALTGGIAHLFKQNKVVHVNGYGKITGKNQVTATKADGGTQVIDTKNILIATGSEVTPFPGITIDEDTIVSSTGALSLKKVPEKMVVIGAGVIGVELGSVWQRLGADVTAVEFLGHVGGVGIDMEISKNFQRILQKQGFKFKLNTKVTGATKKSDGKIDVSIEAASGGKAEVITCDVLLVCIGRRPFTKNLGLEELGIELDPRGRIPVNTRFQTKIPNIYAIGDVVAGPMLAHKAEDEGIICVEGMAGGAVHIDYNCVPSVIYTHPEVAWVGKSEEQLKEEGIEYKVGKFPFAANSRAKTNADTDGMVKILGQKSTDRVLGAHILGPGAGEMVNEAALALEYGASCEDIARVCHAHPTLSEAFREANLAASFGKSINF

proteins of HEK293T cells transiently overexpressing caspase-6 (Homo sapiens, UniProt P07195), sequence (P07195 whole entry): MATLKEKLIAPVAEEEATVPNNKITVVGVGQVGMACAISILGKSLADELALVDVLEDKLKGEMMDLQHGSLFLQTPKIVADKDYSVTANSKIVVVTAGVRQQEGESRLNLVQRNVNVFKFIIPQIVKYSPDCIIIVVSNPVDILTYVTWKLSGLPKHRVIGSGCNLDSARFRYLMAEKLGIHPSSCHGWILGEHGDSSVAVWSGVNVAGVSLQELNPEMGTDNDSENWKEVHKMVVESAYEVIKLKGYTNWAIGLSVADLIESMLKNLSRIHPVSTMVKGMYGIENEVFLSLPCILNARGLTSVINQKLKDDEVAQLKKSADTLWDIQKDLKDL
proteins of HEK293T cells transiently overexpressing caspase-6 (Homo sapiens, UniProt O43707), sequence (O43707 whole entry): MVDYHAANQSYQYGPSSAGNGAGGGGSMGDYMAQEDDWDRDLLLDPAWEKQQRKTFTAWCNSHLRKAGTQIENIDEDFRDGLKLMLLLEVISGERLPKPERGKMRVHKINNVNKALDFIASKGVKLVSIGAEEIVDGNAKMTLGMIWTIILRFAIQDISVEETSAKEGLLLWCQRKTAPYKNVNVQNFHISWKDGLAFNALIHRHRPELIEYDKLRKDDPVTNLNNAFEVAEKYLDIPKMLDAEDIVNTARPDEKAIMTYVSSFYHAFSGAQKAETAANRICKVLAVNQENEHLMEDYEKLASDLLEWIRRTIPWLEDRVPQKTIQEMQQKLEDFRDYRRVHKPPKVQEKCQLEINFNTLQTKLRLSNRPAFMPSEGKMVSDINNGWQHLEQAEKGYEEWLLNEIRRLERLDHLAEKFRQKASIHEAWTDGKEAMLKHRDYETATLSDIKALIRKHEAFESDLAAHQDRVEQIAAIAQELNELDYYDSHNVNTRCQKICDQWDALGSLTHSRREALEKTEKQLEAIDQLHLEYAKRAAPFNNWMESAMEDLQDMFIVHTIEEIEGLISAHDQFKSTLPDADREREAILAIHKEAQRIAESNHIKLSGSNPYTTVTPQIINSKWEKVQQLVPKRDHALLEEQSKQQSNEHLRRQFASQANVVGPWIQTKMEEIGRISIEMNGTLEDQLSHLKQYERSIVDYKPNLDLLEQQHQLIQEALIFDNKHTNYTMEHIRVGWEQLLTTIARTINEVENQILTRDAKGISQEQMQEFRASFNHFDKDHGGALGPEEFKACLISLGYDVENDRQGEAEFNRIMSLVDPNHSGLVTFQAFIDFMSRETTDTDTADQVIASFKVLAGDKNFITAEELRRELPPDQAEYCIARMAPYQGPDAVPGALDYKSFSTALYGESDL
proteins of HEK293T cells transiently overexpressing caspase-6 (Homo sapiens, UniProt Q00610), sequence (Q00610 whole entry): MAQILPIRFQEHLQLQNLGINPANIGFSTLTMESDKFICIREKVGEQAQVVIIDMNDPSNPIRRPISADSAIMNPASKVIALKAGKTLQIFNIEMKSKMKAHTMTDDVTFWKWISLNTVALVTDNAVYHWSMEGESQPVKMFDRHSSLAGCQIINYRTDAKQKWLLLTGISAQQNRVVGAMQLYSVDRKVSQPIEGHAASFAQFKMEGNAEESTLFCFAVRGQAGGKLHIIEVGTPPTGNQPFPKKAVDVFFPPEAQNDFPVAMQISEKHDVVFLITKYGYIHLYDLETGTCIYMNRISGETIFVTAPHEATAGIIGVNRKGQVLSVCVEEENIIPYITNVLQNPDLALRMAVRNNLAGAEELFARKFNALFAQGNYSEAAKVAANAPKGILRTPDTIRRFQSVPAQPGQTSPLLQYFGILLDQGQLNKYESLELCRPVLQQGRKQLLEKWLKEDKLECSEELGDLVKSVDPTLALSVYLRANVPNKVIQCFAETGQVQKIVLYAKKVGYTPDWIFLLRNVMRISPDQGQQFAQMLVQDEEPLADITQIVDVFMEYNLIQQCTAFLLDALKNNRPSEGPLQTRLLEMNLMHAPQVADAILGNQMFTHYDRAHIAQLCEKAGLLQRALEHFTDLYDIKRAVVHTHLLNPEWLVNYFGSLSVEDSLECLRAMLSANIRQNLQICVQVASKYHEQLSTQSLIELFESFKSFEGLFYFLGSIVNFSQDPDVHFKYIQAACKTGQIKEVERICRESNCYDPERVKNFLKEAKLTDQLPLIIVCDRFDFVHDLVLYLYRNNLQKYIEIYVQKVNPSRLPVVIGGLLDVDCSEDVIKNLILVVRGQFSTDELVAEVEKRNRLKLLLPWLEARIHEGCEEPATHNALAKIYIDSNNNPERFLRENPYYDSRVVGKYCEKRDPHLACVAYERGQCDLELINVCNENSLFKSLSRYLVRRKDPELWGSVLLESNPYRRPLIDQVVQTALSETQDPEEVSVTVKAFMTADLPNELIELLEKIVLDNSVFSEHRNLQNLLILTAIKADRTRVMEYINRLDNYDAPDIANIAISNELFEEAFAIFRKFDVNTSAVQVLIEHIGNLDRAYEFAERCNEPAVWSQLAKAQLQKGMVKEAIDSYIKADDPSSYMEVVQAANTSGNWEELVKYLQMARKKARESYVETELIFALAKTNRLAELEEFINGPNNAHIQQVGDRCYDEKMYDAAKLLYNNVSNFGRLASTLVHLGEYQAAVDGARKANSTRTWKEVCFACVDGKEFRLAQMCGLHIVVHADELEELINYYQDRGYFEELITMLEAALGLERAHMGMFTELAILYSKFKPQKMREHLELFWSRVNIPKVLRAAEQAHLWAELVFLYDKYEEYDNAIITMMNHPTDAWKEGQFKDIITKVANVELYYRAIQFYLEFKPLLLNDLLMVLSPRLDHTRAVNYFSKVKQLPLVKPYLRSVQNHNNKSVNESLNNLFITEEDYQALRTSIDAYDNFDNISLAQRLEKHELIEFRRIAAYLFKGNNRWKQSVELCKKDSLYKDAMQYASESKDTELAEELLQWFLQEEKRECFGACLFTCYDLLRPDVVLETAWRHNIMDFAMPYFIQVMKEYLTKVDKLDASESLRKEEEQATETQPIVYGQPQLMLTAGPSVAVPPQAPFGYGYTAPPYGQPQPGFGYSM
proteins of HEK293T cells transiently overexpressing caspase-6 (Homo sapiens, UniProt Q8NBS9), sequence (Q8NBS9 33-432): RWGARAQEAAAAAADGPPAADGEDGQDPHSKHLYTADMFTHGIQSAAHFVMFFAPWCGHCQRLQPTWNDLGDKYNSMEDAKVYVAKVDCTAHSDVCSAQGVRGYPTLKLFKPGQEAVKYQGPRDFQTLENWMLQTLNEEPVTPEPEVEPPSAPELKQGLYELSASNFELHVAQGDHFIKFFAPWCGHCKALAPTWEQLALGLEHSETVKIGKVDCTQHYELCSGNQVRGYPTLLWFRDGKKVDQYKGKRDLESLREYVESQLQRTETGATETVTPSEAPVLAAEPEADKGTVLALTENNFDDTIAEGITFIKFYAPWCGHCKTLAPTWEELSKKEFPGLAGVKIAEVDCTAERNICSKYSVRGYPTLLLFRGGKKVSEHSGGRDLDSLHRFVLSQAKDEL
proteins of HEK293T cells transiently overexpressing caspase-6 (Homo sapiens, UniProt P29692), sequence (P29692 whole entry): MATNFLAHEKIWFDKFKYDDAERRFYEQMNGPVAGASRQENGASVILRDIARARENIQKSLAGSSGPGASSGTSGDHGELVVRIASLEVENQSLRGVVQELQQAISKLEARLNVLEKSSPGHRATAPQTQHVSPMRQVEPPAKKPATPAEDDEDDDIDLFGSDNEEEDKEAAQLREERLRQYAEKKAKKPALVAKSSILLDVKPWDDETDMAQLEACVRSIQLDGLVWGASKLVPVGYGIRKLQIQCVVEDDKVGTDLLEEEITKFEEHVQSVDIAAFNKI
proteins of HEK293T cells transiently overexpressing caspase-6 (Homo sapiens, UniProt Q14166), sequence (Q14166 whole entry): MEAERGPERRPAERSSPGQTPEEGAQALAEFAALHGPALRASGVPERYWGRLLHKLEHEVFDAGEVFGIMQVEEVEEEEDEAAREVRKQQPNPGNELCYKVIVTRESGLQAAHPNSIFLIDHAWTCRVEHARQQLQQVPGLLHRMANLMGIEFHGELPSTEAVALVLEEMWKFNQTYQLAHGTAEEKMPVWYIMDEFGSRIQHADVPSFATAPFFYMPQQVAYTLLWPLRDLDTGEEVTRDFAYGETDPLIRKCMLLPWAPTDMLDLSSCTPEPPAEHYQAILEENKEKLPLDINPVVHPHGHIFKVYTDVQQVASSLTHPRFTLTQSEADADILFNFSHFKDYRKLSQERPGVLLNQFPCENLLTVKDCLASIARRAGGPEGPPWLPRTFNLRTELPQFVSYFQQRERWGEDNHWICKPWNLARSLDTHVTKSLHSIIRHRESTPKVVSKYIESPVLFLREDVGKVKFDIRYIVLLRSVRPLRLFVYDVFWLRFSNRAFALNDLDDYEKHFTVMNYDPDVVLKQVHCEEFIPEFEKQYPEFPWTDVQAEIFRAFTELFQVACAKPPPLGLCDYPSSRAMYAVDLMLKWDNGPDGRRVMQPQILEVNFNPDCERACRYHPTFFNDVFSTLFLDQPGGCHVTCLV
proteins of HEK293T cells transiently overexpressing caspase-6 (Homo sapiens, UniProt P84103), sequence (P84103 whole entry): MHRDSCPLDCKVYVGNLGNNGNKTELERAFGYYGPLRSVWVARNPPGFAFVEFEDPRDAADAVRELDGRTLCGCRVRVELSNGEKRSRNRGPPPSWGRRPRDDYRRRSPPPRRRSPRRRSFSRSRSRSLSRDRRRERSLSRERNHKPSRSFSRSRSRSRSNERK
proteins of HEK293T cells transiently overexpressing caspase-6 (Homo sapiens, UniProt P49189), sequence (P49189 whole entry): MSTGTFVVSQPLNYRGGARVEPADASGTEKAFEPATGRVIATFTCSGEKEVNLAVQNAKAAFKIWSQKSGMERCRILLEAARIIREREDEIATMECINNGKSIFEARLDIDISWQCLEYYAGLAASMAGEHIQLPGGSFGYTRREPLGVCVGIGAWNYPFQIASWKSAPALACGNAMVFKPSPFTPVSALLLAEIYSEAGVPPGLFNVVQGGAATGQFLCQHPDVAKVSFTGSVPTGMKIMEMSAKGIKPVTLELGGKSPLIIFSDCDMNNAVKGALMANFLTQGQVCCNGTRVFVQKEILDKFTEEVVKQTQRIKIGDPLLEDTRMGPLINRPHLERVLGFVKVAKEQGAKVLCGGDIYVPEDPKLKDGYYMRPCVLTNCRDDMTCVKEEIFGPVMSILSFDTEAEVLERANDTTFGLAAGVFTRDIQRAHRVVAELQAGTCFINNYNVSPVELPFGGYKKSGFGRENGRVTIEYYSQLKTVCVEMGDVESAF

For `C#CCOc1ccc([C@@H]2C[C@@H](C(=O)Nc3ccc(OC(F)(F)F)cc3)CN(S(=O)(=O)C=C)C2)cc1` (relative stereo) [13-t], the enrich.exp.med [1] was 0.2193, the enrich.exp.med [2] was 0.5284 and the enrich.exp.med [3] was -0.1545. It also gave an enrich.exp.med.lin [4] of 2.907, an enrich.exp.med.log2 [4] of 1.54 and an enrich.exp.med ([4]; exp_ref Probe, analysis C6) of 1.54. For the same compound, the enrich.exp.med ([5]; exp_ref Probe, analysis C6) was 0.6607, the enrich.exp.med.lin [5] was 1.581 and the enrich.exp.med.log2 [5] was 0.6607. It also gave an enrich.exp.med [6] of -0.3639, an enrich.exp.med [7] of -0.1743 and an enrich.exp.med [8] of 0.4283. The enrich.exp.med ([9]; Probe, protein LDHB P07195) was -0.537, the enrich.exp.med.lin ([9]; protein LDHB (P07195)) was 0.6892 and the enrich.exp.med.log2 ([9]; protein LDHB (P07195)) was -0.537. The enrich.exp.med [10] was -0.7077, the enrich.exp.med [11] was 2.108 and the enrich.exp.med [12] was 0.2139. It also gave an enrich.exp.med ([13]; Probe, protein ZYX Q15942) of -1.696, an enrich.exp.med.lin ([13]; protein ZYX (Q15942)) of 0.3087 and an enrich.exp.med.log2 ([13]; protein ZYX (Q15942)) of -1.696. The enrich.exp.med ([14]; Probe, protein DLD P09622) was -1.39, the enrich.exp.med.lin ([14]; protein DLD (P09622)) was 0.3817 and the enrich.exp.med.log2 ([14]; protein DLD (P09622)) was -1.39.
